# In patent US9254268B2, “Compositions comprising lipophilic active compounds and method for their preparation” (SOLUBEST LTD., priority 2007, dated 2016):
# Legend:
# [1] = Particle size of aqueous dispersions by Dynamic Light Scattering; format: physicochemical; conditions: powder suspended in water
# Experimental: (vii) Particle size of the nanodispersions: measurements were performed using Dynamic Light Scattering (DLS). The method was run on the Malvern Zen 3600, Zetasizer-nano series. The samples were prepared by suspending spray-dried powder in water (0.075-0.1%) at 25-30° C. First, water was added to the appropriate amount of the powder and the mixture was left for 15 min. Then, the suspension was magnetically stirred during 4 min at 300 rpm and 1 ml of the suspension was transferred to a cuvette for measurement. The cuvette was incubated inside the instrument during 5 min for stabilization prior measurement. A series of at least 5 repeating measurements was carried out at 25-30° C. Following parameters are reported from the analysis of volume weighed size distribution: polydispersity index (PDI), the diameter of the main fraction (Z-vol), volume % of main fraction.
# The powders produced as described in Examples 1-9 have been suspended in deionized water as described in method (vii) of the section Materials and Methods.
# In the Dynamic Light Scattering method, we used two main parameters to characterize the colloidal system: the hydrodynamic diameter of the particles and the width of distribution (polydispersity). […]
# [2] = Thermal properties by Differential Scanning Calorimetry (DSC); conditions: for melting enthalpy (melting energy) / melting temperature (endothermic peak): DSC, after preparation
# [3] = Albendazole dissolution in 0.05 M sodium lauryl sulfate; format: physicochemical; conditions: after 15 min
# Experimental: (iv) The dissolution test was performed in accordance with USP Dissolution Method <711> and FDA Dissolution Methods for Drug Products using the paddle apparatus Distek model 2100A. The quantification was performed using UV spectrophotometer. Appropriate amount of spray dried powders or tablets as well as control powders or tablets were dissolved in 1000 ml of 0.05 M water solution of sodium lauryl sulfate, at 37° C., […]
# [4] = Dissolution of resveratrol in Model Fasted Duodenal Solution (MFDS); format: physicochemical
# Experimental: The Model Fasted Duodenal Solution (MFDS) was prepared as follows: a mixture of sodium chloride (3.093 g), sodium hydrophosphate (1.719 g) and sodium taurocholate (0.8065 g) was dissolved in deionized water (300 g) using ultrasonic bath. Lecithin (0.2925 g) was dissolved in 2 ml methylene chloride and added to the buffered solution of sodium taurocholate. The resulting emulsion was stirred for 5 min and then methylene chloride was evaporated under vacuum. The obtained clear micellar solution was adjusted to the volume of 500 ml by deionized water.
# For the test procedure, the test resveratrol formulations or raw resveratrol powder (10 mg) were placed into 2 ml microcentrifuge tube and MFDS (1.8 ml) was added to the each tube. The tubes were gently shaken (about 50 rpm) at 37° C. and samplings were taken at 10, 20, 40, 60 and 120 min. For this purpose, the tubes were vortexed at the highest speed for 60 seconds and then centrifuged at 13 000 G for 60 seconds. The solid-free supernatant (0.4 ml) was mixed with 0.4 ml diluent (30% water adjusted to pH 2.5 with phosphoric acid and 70% acetonitrile) and this solution was inserted into an HPLC instrument for determination of resveratrol concentration.
structure (smiles),measurement,setting,value
"CC(C)c1c(C(=O)Nc2ccccc2)c(-c2ccccc2)c(-c2ccc(F)cc2)n1CC[C@@H](O)C[C@@H](O)CC(=O)O [Example 18, Atorvastatin]",kind of dispersion formed in water (observation),[1],coarse suspensions with large visible particles
same,"broad DSC peak, range","[2]; after storage of six months, attributed to beginning of crystallization",116-183 °C
"CC(C)OC(=O)C(C)(C)Oc1ccc(C(=O)c2ccc(Cl)cc2)cc1 [Fenofibrate starting material, Fenofibrate]",melting enthalpy (melting energy),[2],74.3 J/g
same,melting temperature (endothermic peak),[2],around 82 °C
"CCCSc1ccc2nc(NC(=O)OC)[nH]c2c1 [Raw albendazole crystalline powder, Albendazole]",albendazole dissolved,[3],16.6%
same,melting enthalpy (melting energy),[2],209.7 J/g
same,melting temperature (endothermic peak),[2],around 215 °C
"Oc1ccc(C=Cc2cc(O)cc(O)c2)cc1 [Resveratrol raw powder, Resveratrol]",Concentration of resveratrol,"[4]; 10 min, MFDS, 37° C.",76.65 µg/mL
same,Concentration of resveratrol,[4]; 20 min,103.15 µg/mL
same,Concentration of resveratrol,[4]; 40 min,119.3 µg/mL
same,Concentration of resveratrol,[4]; 60 min,121.05 µg/mL
same,Concentration of resveratrol,[4]; 120 min,155.6 µg/mL
